Read-outs that look alike come from different tables or passages of the source.
Format: physicochemical
Procedure: An aqueous solution containing the following components was made:
10 mg/ml of adenosine 5′-triphosphate disodium salt (anhydrous) (18.15 mM)
1 mg/ml of glycine (13.32 mM)
Sodium hydroxide (sufficient to adjust pH to 9.2-9.3)
Water sufficient to result in the above concentrations of adenosine 5′-triphosphate disodium salt (anhydrous), glycine, and 36 mg/ml of Na2HPO4.7H2O.
Below (in Table 2) are shown the relative amounts of ADP in the solution aliquots at the various time points. The data shown are concentrations of ADP as a percentage of the concentrations of ATP in the solution aliquots. The pH of the 72 month time point sample was 8.8.

Nc1ncnc2c1ncn2[C@@H]1O[C@H](COP(=O)([O-])OP(=O)([O-])OP(=O)(O)O)[C@@H](O)[C@H]1O.[Na+].[Na+] [ATP, adenosine 5′-triphosphate disodium salt (anhydrous)]
Relative amount of ADP ([ADP]/[ATP] × 100) (0 months storage (immediately after making), 10 mg/ml ATP disodium, 1 mg/ml glycine, 36 mg/ml Na2HPO4.7H2O, pH 9.2-9.3): 0.35%
Relative amount of ADP ([ADP]/[ATP] × 100) (1 month storage at about 4° C. to about 8° C., same solution): 0.42%
Relative amount of ADP ([ADP]/[ATP] × 100) (3 months storage at about 4° C. to about 8° C., same solution): 0.48%
Relative amount of ADP ([ADP]/[ATP] × 100) (6 months storage at about 4° C. to about 8° C., same solution): 0.57%
Relative amount of ADP ([ADP]/[ATP] × 100) (12 months storage at about 4° C. to about 8° C., same solution): 0.72%
Relative amount of ADP ([ADP]/[ATP] × 100) (24 months storage at about 4° C. to about 8° C., same solution): 1.15%
Relative amount of ADP ([ADP]/[ATP] × 100) (36 months storage at about 4° C. to about 8° C., same solution): 1.4%
pH of the solution after storage (72 month time point sample, initial pH 9.2-9.3): 8.8
Relative amount of ADP ([ADP]/[ATP] × 100) (72 months (6 years) storage at about 4° C. to about 8° C., same solution): 2.9%
Stability of alkaline solution of ATP (duration) (alkaline solution): stable for at least six years
Presence of other ATP degradation (hydrolysis) products (AMP and adenosine) (all time points 0 to 72 months, about 4° C. to 8° C., HPLC): significant levels of neither were detectable at any of the time points

Source: patent US20100222294A1, “Formulations of ATP and Analogs of ATP” (priority 2009, published 2010)
